Read-outs that look alike come from different tables or passages of the source. Blank lines part the entries; values can stand above or below the compound they belong to.
Assays:
Test in all cases: biochemical
[1] = molecular target: T1, Haspin (Homo sapiens, UniProt Q8TF76)
T1 sequence (Q8TF76 1-798): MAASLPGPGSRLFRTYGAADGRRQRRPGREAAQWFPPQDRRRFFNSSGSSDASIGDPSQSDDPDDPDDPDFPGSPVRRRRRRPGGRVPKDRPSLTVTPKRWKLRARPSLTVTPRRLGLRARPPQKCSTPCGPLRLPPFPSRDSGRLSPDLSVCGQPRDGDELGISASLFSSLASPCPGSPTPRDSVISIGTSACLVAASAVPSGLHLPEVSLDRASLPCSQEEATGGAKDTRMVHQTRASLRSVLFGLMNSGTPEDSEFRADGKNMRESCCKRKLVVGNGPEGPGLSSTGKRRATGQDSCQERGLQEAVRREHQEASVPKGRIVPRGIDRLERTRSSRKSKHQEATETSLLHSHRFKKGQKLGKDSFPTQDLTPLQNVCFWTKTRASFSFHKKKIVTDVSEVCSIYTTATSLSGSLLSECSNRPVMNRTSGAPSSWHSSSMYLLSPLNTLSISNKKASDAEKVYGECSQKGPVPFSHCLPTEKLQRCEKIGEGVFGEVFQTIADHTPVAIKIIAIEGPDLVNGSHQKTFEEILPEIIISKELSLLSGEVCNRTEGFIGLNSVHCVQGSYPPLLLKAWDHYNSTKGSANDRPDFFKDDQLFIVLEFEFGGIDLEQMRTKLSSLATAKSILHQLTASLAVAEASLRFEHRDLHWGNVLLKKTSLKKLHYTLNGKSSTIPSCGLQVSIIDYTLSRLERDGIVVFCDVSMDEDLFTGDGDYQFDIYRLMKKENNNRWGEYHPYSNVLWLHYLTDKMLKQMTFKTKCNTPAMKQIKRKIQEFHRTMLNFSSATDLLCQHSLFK

[2] = molecular target: T2, EphB1 (Homo sapiens, UniProt P54762)
T2 sequence (P54762 1-984): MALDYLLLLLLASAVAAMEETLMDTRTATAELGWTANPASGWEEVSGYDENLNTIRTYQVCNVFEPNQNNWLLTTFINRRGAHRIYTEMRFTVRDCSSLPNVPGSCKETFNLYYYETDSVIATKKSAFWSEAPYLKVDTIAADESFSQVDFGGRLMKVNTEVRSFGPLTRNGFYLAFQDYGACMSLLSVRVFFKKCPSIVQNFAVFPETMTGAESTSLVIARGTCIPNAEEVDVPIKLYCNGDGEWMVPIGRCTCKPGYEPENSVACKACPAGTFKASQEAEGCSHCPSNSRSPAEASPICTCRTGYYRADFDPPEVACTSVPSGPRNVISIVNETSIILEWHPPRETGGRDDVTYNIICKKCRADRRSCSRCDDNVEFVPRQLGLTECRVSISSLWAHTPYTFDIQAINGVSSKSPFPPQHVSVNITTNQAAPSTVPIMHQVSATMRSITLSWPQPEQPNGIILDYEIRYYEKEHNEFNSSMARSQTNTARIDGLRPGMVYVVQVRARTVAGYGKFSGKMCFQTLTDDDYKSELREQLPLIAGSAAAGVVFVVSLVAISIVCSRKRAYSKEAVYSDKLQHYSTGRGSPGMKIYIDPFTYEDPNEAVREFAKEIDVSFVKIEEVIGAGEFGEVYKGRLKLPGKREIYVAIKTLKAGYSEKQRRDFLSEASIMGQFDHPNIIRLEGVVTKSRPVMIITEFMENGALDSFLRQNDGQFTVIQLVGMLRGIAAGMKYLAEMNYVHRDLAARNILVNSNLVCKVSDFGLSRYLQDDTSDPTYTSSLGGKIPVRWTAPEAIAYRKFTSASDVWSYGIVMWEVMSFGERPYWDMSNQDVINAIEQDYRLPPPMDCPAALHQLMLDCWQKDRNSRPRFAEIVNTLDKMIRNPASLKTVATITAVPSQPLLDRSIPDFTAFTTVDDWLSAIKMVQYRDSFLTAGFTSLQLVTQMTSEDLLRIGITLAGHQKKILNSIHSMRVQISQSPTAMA

[3] = molecular target: T3, MARK4 (Homo sapiens, UniProt Q96L34)
T3 sequence (Q96L34 1-752): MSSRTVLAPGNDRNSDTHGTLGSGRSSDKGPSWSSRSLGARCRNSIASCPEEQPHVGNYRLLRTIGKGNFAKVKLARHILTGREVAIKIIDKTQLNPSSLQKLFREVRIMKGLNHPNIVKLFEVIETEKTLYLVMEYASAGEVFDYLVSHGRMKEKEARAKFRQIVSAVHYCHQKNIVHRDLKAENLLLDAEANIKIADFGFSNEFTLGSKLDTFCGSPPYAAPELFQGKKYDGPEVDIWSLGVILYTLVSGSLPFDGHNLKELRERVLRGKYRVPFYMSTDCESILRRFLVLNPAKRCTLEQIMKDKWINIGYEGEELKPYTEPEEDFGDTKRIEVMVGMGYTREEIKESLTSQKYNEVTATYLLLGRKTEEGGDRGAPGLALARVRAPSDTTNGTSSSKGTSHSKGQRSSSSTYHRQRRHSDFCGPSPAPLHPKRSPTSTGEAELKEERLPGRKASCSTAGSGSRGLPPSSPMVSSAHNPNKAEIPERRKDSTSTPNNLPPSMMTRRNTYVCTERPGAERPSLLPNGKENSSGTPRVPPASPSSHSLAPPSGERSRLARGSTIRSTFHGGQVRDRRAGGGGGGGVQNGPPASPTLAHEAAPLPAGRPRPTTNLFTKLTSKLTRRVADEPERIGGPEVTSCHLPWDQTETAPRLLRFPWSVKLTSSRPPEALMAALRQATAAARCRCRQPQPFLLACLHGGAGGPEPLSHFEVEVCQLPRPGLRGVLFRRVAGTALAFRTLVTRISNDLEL

[4] = molecular target: T4, MAP2K6 (Homo sapiens, UniProt P52564)
T4 sequence (P52564 1-334): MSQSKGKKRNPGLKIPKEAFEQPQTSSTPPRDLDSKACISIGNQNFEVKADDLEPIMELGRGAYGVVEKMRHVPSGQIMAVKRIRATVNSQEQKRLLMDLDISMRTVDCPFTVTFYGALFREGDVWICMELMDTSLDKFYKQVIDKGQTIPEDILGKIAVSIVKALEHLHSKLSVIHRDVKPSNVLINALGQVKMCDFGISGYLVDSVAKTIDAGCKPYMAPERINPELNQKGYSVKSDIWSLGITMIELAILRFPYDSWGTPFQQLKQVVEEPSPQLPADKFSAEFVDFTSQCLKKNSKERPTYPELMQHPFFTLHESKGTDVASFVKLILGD

Compound: CNc1ncc2cc(-c3cc(Cl)ccc3Cl)c(=O)n(CCCCN)c2n1 [compound 8, 8-(4-Aminobutyl)-6-(2,5-dichlorophenyl)-2-(methylamino)pyrido[2,3-d]pyrimidin-7(8H)-one]
ΔTm at 10 µM ([1]; read-out: dTm 8): 0.6 °C | ΔTm at 10 µM ([2]; read-out: dTm 8): 5.3 °C | ΔTm at 10 µM ([3]; read-out: dTm 8): 1 °C | ΔTm at 10 µM ([4]; read-out: dTm 8): 1.3 °C

Compound: CNc1ncc2cc(-c3cc(C(F)(F)F)ccc3Cl)c(=O)n(CCCCN)c2n1 [compound 9, 8-(4-Aminobutyl)-6-(2-chloro-5-(trifluoromethyl)phenyl)-2-(methylamino)pyrido[2,3-d]pyrimidin-7(8H)-one]
ΔTm at 10 µM ([1]; read-out: dTm 9): 0.1 °C | ΔTm at 10 µM ([2]; read-out: dTm 9): 3.3 °C | ΔTm at 10 µM ([3]; read-out: dTm 9): 0 °C | ΔTm at 10 µM ([4]; read-out: dTm 9): 0.8 °C

Compound: CNc1ncc2cc(-c3cc(Cl)ccc3Br)c(=O)n(CCCCN)c2n1 [compound 10, 8-(4-Aminobutyl)-6-(2-bromo-5-chlorophenyl)-2-(methylamino)pyrido[2,3-d]pyrimidin-7(8H)-one]
ΔTm at 10 µM ([1]; read-out: dTm 10): 0.6 °C | ΔTm at 10 µM ([2]; read-out: dTm 10): 5.5 °C | ΔTm at 10 µM ([3]; read-out: dTm 10): 1.7 °C | ΔTm at 10 µM ([4]; read-out: dTm 10): 1.5 °C

More lines, now with the values ahead:

ΔTm at 10 µM ([1]; read-out: dTm 11): 0.7 °C | ΔTm at 10 µM ([2]; read-out: dTm 11): 4.7 °C | ΔTm at 10 µM ([3]; read-out: dTm 11): 1.8 °C | ΔTm at 10 µM ([4]; read-out: dTm 11): 1.6 °C
Compound: CNc1ncc2cc(-c3cc(Br)ccc3Br)c(=O)n(CCCCN)c2n1 [compound 11, 8-(4-Aminobutyl)-6-(2,5-dibromophenyl)-2-(methylamino)pyrido[2,3-d]pyrimidin-7(8H)-one]

ΔTm at 10 µM ([1]; read-out: dTm 12): -0.4 °C | ΔTm at 10 µM ([2]; read-out: dTm 12): 3.5 °C | ΔTm at 10 µM ([3]; read-out: dTm 12): 4.5 °C | ΔTm at 10 µM ([4]; read-out: dTm 12): 3.8 °C
Compound: CNc1ncc2cc(-c3cc(F)c(-c4cccc(C)n4)cc3F)c(=O)n(CCCCN)c2n1 [compound 12, 8-(4-Aminobutyl)-6-(2,5-difluoro-4-(6-methylpyridin-2-yl)phenyl)-2-(methylamino)pyrido[2,3-d]pyrimidin-7(8H)-one]
